Data set [1] concerns the target T1, Receptor-type tyrosine-protein phosphatase C (Homo sapiens) (UniProt P08575).
T1 sequence (whole entry): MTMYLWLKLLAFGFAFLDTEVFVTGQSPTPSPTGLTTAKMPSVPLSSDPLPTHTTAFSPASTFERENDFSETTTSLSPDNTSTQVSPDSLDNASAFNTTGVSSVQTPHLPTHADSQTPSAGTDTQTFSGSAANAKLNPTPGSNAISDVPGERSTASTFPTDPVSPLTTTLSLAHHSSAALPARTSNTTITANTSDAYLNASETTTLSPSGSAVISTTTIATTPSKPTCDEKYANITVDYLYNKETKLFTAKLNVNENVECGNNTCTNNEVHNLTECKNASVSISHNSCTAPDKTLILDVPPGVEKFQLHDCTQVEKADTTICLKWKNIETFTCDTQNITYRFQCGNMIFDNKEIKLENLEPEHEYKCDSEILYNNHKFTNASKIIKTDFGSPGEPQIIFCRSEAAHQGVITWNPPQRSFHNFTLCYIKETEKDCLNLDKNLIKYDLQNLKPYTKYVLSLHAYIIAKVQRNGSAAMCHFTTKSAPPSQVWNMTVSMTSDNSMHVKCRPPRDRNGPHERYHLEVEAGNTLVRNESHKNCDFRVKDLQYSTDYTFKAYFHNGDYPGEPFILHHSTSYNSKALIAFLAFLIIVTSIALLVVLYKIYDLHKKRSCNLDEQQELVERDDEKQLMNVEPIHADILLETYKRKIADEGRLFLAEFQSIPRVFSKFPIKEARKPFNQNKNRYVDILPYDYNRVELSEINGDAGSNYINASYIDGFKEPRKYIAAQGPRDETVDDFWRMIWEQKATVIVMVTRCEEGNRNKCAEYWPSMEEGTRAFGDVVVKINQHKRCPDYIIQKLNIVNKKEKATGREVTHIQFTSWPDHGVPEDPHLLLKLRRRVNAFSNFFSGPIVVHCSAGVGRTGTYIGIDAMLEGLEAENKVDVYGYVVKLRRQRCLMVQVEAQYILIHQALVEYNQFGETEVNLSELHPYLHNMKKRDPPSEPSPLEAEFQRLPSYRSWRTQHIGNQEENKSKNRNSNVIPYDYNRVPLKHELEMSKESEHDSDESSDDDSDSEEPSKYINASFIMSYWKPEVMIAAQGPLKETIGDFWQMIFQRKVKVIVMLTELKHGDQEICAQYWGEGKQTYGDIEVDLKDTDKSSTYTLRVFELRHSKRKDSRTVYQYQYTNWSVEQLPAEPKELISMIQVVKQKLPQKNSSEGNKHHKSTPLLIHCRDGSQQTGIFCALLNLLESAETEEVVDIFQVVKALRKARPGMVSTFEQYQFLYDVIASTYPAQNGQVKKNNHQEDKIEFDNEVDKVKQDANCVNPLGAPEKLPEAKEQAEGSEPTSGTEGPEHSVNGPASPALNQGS
Put plainly: Compound was evaluated for inhibitory activity against CD45 protein tyrosine phosphatase at a concentration of 200 uM; no activity.

Data set [2] has as its target T1, Receptor-type tyrosine-protein phosphatase C (Homo sapiens). In words: (§1) Kinetic constant for CD45 protein tyrosine phosphatase inhibition was evaluated using malachite green assay.
Data set [3] has the same target. Put plainly: (§2) Kinetic constant for CD45 Protein-tyrosine phosphatase inhibition was evaluated using malachite green assay.
Compound in data set [4]: CC(=O)N[C@@H](Cc1ccccc1)C(=O)N[C@H](C(=O)N[C@@H](C)C(=O)N[C@H](C(=O)N[C@@H](CCC(=O)O)C(=O)N1CCC[C@H]1C(=O)N[C@@H](CCC(N)=O)C(=O)N[C@@H](Cc1ccc(OP(=O)(O)O)cc1)C(=O)N[C@@H](CCC(N)=O)C(=O)N1CCC[C@H]1C(=O)NCC(=O)N[C@@H](CCC(N)=O)C(=O)N[C@@H](CC(N)=O)C(=O)N[C@@H](CC(C)C)C(N)=O)[C@@H](C)O)[C@@H](C)O
The data set is described as §2.

Compound in data set [5]: CC(=O)N1CCC[C@H]1C(=O)N[C@@H](CCC(N)=O)C(=O)N[C@@H](Cc1ccc(OP(=O)(O)O)cc1)C(=O)N[C@@H](CCC(N)=O)C(=O)N1CCC[C@@H]1C(N)=O
The data set is described as §1.

Compound in data set [6]: CC(=O)N1CCC[C@H]1C(=O)N[C@@H](CCC(N)=O)C(=O)N[C@@H](Cc1ccc(OP(=O)(O)O)cc1)C(=O)N[C@@H](CCC(N)=O)C(N)=O
The description is as §1.

Compound in data set [7]: CC(=O)N[C@@H](C)C(=O)N[C@H](C(=O)N[C@@H](CCC(=O)O)C(=O)N1CCC[C@H]1C(=O)N[C@@H](CCC(N)=O)C(=O)N[C@@H](Cc1ccc(OP(=O)(O)O)cc1)C(=O)N[C@@H](CCC(N)=O)C(=O)N1CCC[C@H]1C(=O)NCC(=O)N[C@@H](CCC(N)=O)C(=O)N[C@@H](CC(N)=O)C(=O)N[C@@H](CC(C)C)C(N)=O)[C@@H](C)O
Described as §1.

Compound in data set [8]: CC(=O)N[C@@H](CCC(=O)O)C(=O)N1CCC[C@H]1C(=O)N[C@@H](CCC(N)=O)C(=O)N[C@@H](Cc1ccc(OP(=O)(O)O)cc1)C(=O)N[C@@H](CCC(N)=O)C(=O)N1CCC[C@H]1C(=O)NCC(=O)N[C@@H](CCC(N)=O)C(=O)N[C@@H](CC(N)=O)C(=O)N[C@@H](CC(C)C)C(N)=O
The data set is described as §1.

Compound in data set [9]: CC(=O)N[C@@H](CCC(N)=O)C(=O)N[C@@H](Cc1ccc(OP(=O)(O)O)cc1)C(=O)N[C@@H](CCC(N)=O)C(=O)N1CCC[C@@H]1C(N)=O
Described as §1.

Compound in data set [10]: CC(=O)N[C@@H](CCC(N)=O)C(=O)N[C@@H](Cc1ccc(OP(=O)(O)O)cc1)C(=O)N[C@@H](CCC(N)=O)C(=O)N1CCC[C@H]1C(=O)NCC(=O)N[C@@H](CCC(N)=O)C(=O)N[C@@H](CC(N)=O)C(=O)N[C@@H](CC(C)C)C(N)=O
Described as §1.

Compound in data set [11]: CC(=O)N[C@@H](Cc1ccc(OP(=O)(O)O)cc1)C(N)=O
The data set is described as §1.

Compound in data set [12]: O=[N+]([O-])c1ccc(OP(=O)(O)O)cc1
The description is as §1.

One may read the Km as the concentration of substrate that gives half-maximal velocity.

Activity calls are given as the source filed them. The calls are words filed in the database; no cut-off is given here. Non-standard residues stand in square brackets, D forms with d. Residues, ends and D or L forms follow the SMILES beside them. *: point of attachment. pY = N[C@@H](Cc1ccc(OP(=O)(O)O)cc1)C(=O)O; Cbz = O=C(OCc1ccccc1)*

As to `NC(=O)[C@H](Cc1ccc(OC(=O)CCl)cc1)NC(=O)OCc1ccccc1`, the result in [1] was inactive.
In the case of `CC(=O)N1CCC[C@H]1C(=O)N[C@@H](CCC(N)=O)C(=O)N[C@@H](Cc1ccc(OP(=O)(O)O)cc1)C(=O)N[C@@H](CCC(N)=O)C(N)=O` (Ac-PQ[pY]Q-NH2), the k cat in data set [2] stood at 3.95 s⁻¹.
In the case of `NC(=O)[C@H](Cc1ccc(O)cc1)NC(=O)OCc1ccccc1`, in data set [1], the outcome was inactive.
As for `CC(=O)N[C@@H](C)C(=O)N[C@H](C(=O)N[C@@H](CCC(=O)O)C(=O)N1CCC[C@H]1C(=O)N[C@@H](CCC(N)=O)C(=O)N[C@@H](Cc1ccc(OP(=O)(O)O)cc1)C(=O)N[C@@H](CCC(N)=O)C(=O)N1CCC[C@H]1C(=O)NCC(=O)N[C@@H](CCC(N)=O)C(=O)N[C@@H](CC(N)=O)C(=O)N[C@@H](CC(C)C)C(N)=O)[C@@H](C)O` (Ac-ATEPQ[pY]QPGQNL-NH2), the k cat in data set [2] worked out at 4.93 s⁻¹.
In data set [2], `CC(=O)N1CCC[C@H]1C(=O)N[C@@H](CCC(N)=O)C(=O)N[C@@H](Cc1ccc(OP(=O)(O)O)cc1)C(=O)N[C@@H](CCC(N)=O)C(=O)N1CCC[C@@H]1C(N)=O` came in with a k cat of 3.95 s⁻¹.
With `CC(=O)N[C@@H](CCC(N)=O)C(=O)N[C@@H](Cc1ccc(OP(=O)(O)O)cc1)C(=O)N[C@@H](CCC(N)=O)C(=O)N1CCC[C@H]1C(=O)NCC(=O)N[C@@H](CCC(N)=O)C(=O)N[C@@H](CC(N)=O)C(=O)N[C@@H](CC(C)C)C(N)=O` (Ac-Q[pY]QPGQNL-NH2), the k cat in data set [2] is 4.82 s⁻¹.
Regarding `NC(=O)CC[C@H](NC(=O)[C@H](Cc1ccc(OC[C@@H]2CO2)cc1)NC(=O)[C@H](CCC(N)=O)NC(=O)OCc1ccccc1)C(N)=O`, in data set [1], the result was inactive.
Regarding `NC(=O)[C@H](Cc1ccc(OP(=O)(O)CCl)cc1)NC(=O)OCc1ccccc1`, the result in data set [1] was inactive.
Take `CC(=O)N[C@@H](CCC(=O)O)C(=O)N1CCC[C@H]1C(=O)N[C@@H](CCC(N)=O)C(=O)N[C@@H](Cc1ccc(OP(=O)(O)O)cc1)C(=O)N[C@@H](CCC(N)=O)C(=O)N1CCC[C@H]1C(=O)NCC(=O)N[C@@H](CCC(N)=O)C(=O)N[C@@H](CC(N)=O)C(=O)N[C@@H](CC(C)C)C(N)=O` (Ac-EPQ[pY]QPGQNL-NH2): the k cat in [2] was 4.22 s⁻¹.
With `CC(=O)N[C@@H](Cc1ccccc1)C(=O)N[C@H](C(=O)N[C@@H](C)C(=O)N[C@H](C(=O)N[C@@H](CCC(=O)O)C(=O)N1CCC[C@H]1C(=O)N[C@@H](CCC(N)=O)C(=O)N[C@@H](Cc1ccc(OP(=O)(O)O)cc1)C(=O)N[C@@H](CCC(N)=O)C(=O)N1CCC[C@H]1C(=O)NCC(=O)N[C@@H](CCC(N)=O)C(=O)N[C@@H](CC(N)=O)C(=O)N[C@@H](CC(C)C)C(N)=O)[C@@H](C)O)[C@@H](C)O` (Ac-FTATEPQ[pY]QPGQNL-NH2), the k cat in data set [3] came to 3.95 s⁻¹.
Take `NC(=O)CC[C@H](NC(=O)[C@H](Cc1ccc(O)cc1)NC(=O)[C@H](CCC(N)=O)NC(=O)OCc1ccccc1)C(N)=O` (Cbz-Gln-Tyr-Gln-NH2): in data set [1], the result was inactive.
`CC(=O)N[C@@H](Cc1ccc(OP(=O)(O)O)cc1)C(N)=O` had a k cat in data set [2] of 3.95 s⁻¹.
The molecule `CC(=O)N[C@@H](CCC(N)=O)C(=O)N[C@@H](Cc1ccc(OP(=O)(O)O)cc1)C(=O)N[C@@H](CCC(N)=O)C(=O)N1CCC[C@@H]1C(N)=O` came in with a k cat in data set [2] of 3.95 s⁻¹.
Consider `NC(=O)[C@H](Cc1ccc(OC[C@@H]2CO2)cc1)NC(=O)OCc1ccccc1`, for which, in [1], the result was inactive.
Take `NC(=O)[C@H](Cc1ccc(OC[C@H]2CO2)cc1)NC(=O)OCc1ccccc1`: the result in [1] was inactive.
On to `O=[N+]([O-])c1ccc(OP(=O)(O)O)cc1`, for which the k cat in data set [2] came to 3.95 s⁻¹.

B1: Receptor-type tyrosine-protein phosphatase C (Homo sapiens), P08575 (protein)
chain: T1 sequence (whole entry)
Turning to B1, the Km in [4] is 278 µM; in data set [5] it was 278 µM; in data set [6] it was 278 µM; in data set [7] it was 143 µM; in data set [8], 102 µM; in data set [9], 278 µM. Moreover, the Michaelis constant (Km) in [10] was determined as 172 µM; in [11] it was 278 µM; in data set [12], 278 µM.

The values above are taken from ChEMBL document CHEMBL1128649, “CD45 protein tyrosine phosphatase: Determination of minimal peptide length for substrate recognition and synthesis of some tyrosine-based electrophiles as potential active-site directed irreversible inhibitors” (Bioorg Med Chem Lett, 1995).
